Laboratory results: patent publication US10970594B2, “Magnetic resonance maps for analyzing tissue” (Tel HaShomer Medical Research Infrastructure and Services …, priority 2011, dated 2021)

Assays:
[1] = test system: recurrent GBM; test: Delayed enhancement subtraction maps and T1-weighted MRI of patients treated with bevacizumab (Example 5); type: in vivo, human
Protocol: In the present example, the delayed enhancement subtraction maps of the present embodiments are used for analyzing brain MRI of subjects treated with bevacizumab.
Four patients were subjected to bevacizumab (Avastin®) treatment. High resolution T1-weighted MR images were acquired and subtraction maps were calculated from these images. Acquisition sessions were held before treatment and several times after treatment. The predetermined time interval between two subtracted images was 75 minutes. Histological analysis was performed with tissue samples obtained from the on of these patients which underwent surgery after treatment with Avastin.

[2] = test system: GBM lesion; test: Vessel function maps of GBM patients given Bevacizumab IV after failing first line chemoradiation (Example 2, preliminary results); type: in vivo, human; settings: for change of the lesion in the map: patient #1, GBM lesion of FIG. 8
Protocol: Two GBM patients who failed first line chemoradiation were given Bevacizumab as an IV infusion, 10 mg/kg body weight every 2 weeks (standard Bevacizumab regimen for GBM patients).
The patients were recruited before Bevacizumab treatment was initiated. They underwent the first MRI exam prior to treatment. Second and third MRI exams are performed 1 week and 1 month after the administration of the first Bevacizumab dose. Two more MRI exams are performed at 3 and 5 months post initiation of treatment.
Vessel function maps were calculated at 15 and 75 min after contrast injection. Examples of two patients with 3 GBM lesions with different presentations of response to Avastin, are shown below. The response pattern to Avastin and the physiological meaning of the observed changes in the maps, are being studied.

[3] = common adverse effects hypertension and proteinuria; thromboembolic disease and hemorrhage infrequent; cited from earlier work
[4] = patient of FIGS. 30A-F, at 3 months
[5] = patient of FIGS. 30A-F, first month after initiation of treatment
[6] = patient of FIGS. 31A-F, first 3 months
[7] = patient of FIGS. 32A-H, at 1 month
[8] = patient of FIGS. 32A-H, at 3 months, after re-irradiation
[9] = patient of FIGS. 32A-H, first week
[10] = patient #2, FIG. 12, 1 week after the first treatment

## bevacizumab
[1]; [4]
  enhancing lesion decreased by, of its original volume: about 57%
  red volume decreased by: about 40%
[1]; patient of FIGS. 30A-F, at 3 months, suggesting progression
  blue volume increased by: about 25%
[1]; [5]
  blue volume: stable
  enhancing lesion volume (on T1-Gd) decreased by: about 50%
  red volume decreased by: about 50%
[1]; patient of FIGS. 31A-F, 5 months MRI, after re-irradiation during bevacizumab treatment
  blue volume: decreased significantly
[1]; [6]
  blue volume: increased significantly
  edema: decreased
  lesion volume on T1-Gd: stable
[1]; [7]
  blue volume increased by: 200%
  enhancing volume increased by: 70%
  red volume decreased by: about 50%
[1]; [8]
  blue volume increased by: over 500%
  enhancing lesion volume increased by: over 500%
  red volume increased by: over 500%
[1]; [9]
  blue volume decreased by: 20%
  enhancing lesion volume (on T1-Gd): stable
  red volume increased by: 30%
[2]; 1 month follow-up
  change of the lesion in the map: minor changes
[2]; first week of treatment
  change of the lesion in the map: became more prominently blue
[2]; patient #1, recurrent GBM lesion of FIG. 10, 1 month later
  blue component: increase
[2]; patient #1, recurrent GBM lesion of FIG. 10, first week post treatment
  blue component: decrease
[2]; [10]
  blue component: has not decreased
  edema: somewhat relieved
  pressure on the brain: relieved
  red component of the lesion: significantly decreased
[2]; patient #2, FIG. 12, 3-months follow-up, in parallel to clinical deterioration, no sign of progression on conventional MRI
  blue component: continued to increase
[3]
  tolerability: generally well tolerated
